In US20240034722A1, “PRETARGETING IMAGING AGENTS” (Eli Lilly and Company, priority 2020, published 2024):

Assay: Dynamic micro PET-CT imaging, tracer uptake in brain, muscle and bone
Format: in vivo, CD-1 mice
Details: for Bone Mean % ID/g / Brain Mean % ID/g / Muscle Mean % ID/g: male CD-1 mice, iv
Method: (§1) A Siemens Inveon® Multimodality Scanner (Siemens, Germany) is used for micro PET-CT imaging. Male CD-1 (6-week-old, ˜30 g) mice are anesthetized with 3% isoflurane/97% oxygen and placed on the bed of the scanner. The mice are administered [^18F]N-(4-(1,2,4,5-tetrazin-3-yl)benzyl)-2-fluoronicotinamide via a bolus intravenous tail vein injection (˜350 ρCi in a total volume of 150 μL saline). A total of four dynamic PET scans are conducted, followed by a short high-resolution CT scan for anatomical registration. PET images are generated for each minute of the acquisition time. Uptake of the tracer in the brain, muscle, and bone are determined by visually drawing regions of interest (ROIs) based on the fused PET/CT images and the corresponding activity values are determined using the Inveon® Research Workplace software. All values are represented as % injected dose per gram (% ID/g).
as §1, with “g) mice were anesthetized with” for “g) mice are anesthetized with”, “are administered [^18F]N-(4-(1,2,4,5-tetrazin-3-yl)benzyl)-6-fluoropicolinamide via a” for “are administered [^18F]N-(4-(1,2,4,5-tetrazin-3-yl)benzyl)-2-fluoronicotinamide via a”, “vein injection (˜300 ρCi in” for “vein injection (˜350 ρCi in”
as §1, with “PET/CT” for “PET-CT”, “30-40” for “˜30”, “[^18F]N-(4-(1,2,4,5-tetrazin-3-yl)benzyl)-6-fluoronicotinamide” for “[^18F]N-(4-(1,2,4,5-tetrazin-3-yl)benzyl)-2-fluoronicotinamide”, “(˜300” for “(˜350”, “two” for “four”

[1] = CD-1 male mice, dynamic PET, i.v.

O=C(NCc1ccc(-c2nncnn2)cc1)c1ccc([18F])nc1 [Comparative Example 6, [^18]FN-(4-(1,2,4,5-tetrazin-3-yl)benzyl)-6-fluoronicotinamide]
Bone uptake throughout the scan period (defluorination) (CD-1 male mice, 60-min scan): remained low | Uptake throughout the periphery of the body (liver, kidneys, heart) (CD-1 male mice, PET): readily observed | Brain uptake after steady clearance of tracer (CD-1 male mice, at 59.5 min post injection): 1.1 % ID/g | Crossing of the blood-brain-barrier (CD-1 male mice, dynamic PET): crosses the blood-brain-barrier | Peak brain uptake [1]: 2.6 % ID/g | Time of peak brain uptake post injection [1]: 2.5 min | Bone Mean % ID/g (Time 0.5 min): 0.00 % ID/g | Brain Mean % ID/g (Time 0.5 min): 0.00 % ID/g | Muscle Mean % ID/g (Time 0.5 min): 0.00 % ID/g | Bone Mean % ID/g (Time 1.5 min): 0.09 % ID/g | Brain Mean % ID/g (Time 1.5 min): 0.52 % ID/g | Muscle Mean % ID/g (Time 1.5 min): 0.07 % ID/g | Bone Mean % ID/g (Time 2.5 min): 0.83 % ID/g | Brain Mean % ID/g (Time 2.5 min): 2.57 % ID/g | Muscle Mean % ID/g (Time 2.5 min): 0.56 % ID/g | Bone Mean % ID/g (Time 3.5 min): 0.95 % ID/g | Brain Mean % ID/g (Time 3.5 min): 2.45 % ID/g | Muscle Mean % ID/g (Time 3.5 min): 0.67 % ID/g | Bone Mean % ID/g (Time 4.5 min): 0.85 % ID/g | Brain Mean % ID/g (Time 4.5 min): 2.29 % ID/g | Muscle Mean % ID/g (Time 4.5 min): 0.73 % ID/g | Bone Mean % ID/g (Time 5.5 min): 0.86 % ID/g | Brain Mean % ID/g (Time 5.5 min): 2.20 % ID/g | Muscle Mean % ID/g (Time 5.5 min): 0.72 % ID/g | Bone Mean % ID/g (Time 6.5 min): 0.90 % ID/g | Brain Mean % ID/g (Time 6.5 min): 2.23 % ID/g | Muscle Mean % ID/g (Time 6.5 min): 0.80 % ID/g | Bone Mean % ID/g (Time 7.5 min): 0.90 % ID/g | Brain Mean % ID/g (Time 7.5 min): 2.15 % ID/g | Muscle Mean % ID/g (Time 7.5 min): 0.84 % ID/g | Bone Mean % ID/g (Time 8.5 min): 0.90 % ID/g | Brain Mean % ID/g (Time 8.5 min): 2.10 % ID/g | Muscle Mean % ID/g (Time 8.5 min): 0.84 % ID/g | Bone Mean % ID/g (Time 9.5 min): 0.81 % ID/g | Brain Mean % ID/g (Time 9.5 min): 2.00 % ID/g | Muscle Mean % ID/g (Time 9.5 min): 0.78 % ID/g | Bone Mean % ID/g (Time 10.5 min): 0.90 % ID/g | Brain Mean % ID/g (Time 10.5 min): 1.95 % ID/g | Muscle Mean % ID/g (Time 10.5 min): 0.79 % ID/g | Bone Mean % ID/g (Time 11.5 min): 0.92 % ID/g | Brain Mean % ID/g (Time 11.5 min): 1.89 % ID/g | Muscle Mean % ID/g (Time 11.5 min): 0.84 % ID/g | Bone Mean % ID/g (Time 12.5 min): 0.94 % ID/g | Brain Mean % ID/g (Time 12.5 min): 1.86 % ID/g | Muscle Mean % ID/g (Time 12.5 min): 0.84 % ID/g | Bone Mean % ID/g (Time 13.5 min): 0.97 % ID/g | Brain Mean % ID/g (Time 13.5 min): 1.83 % ID/g | Muscle Mean % ID/g (Time 13.5 min): 0.88 % ID/g | Bone Mean % ID/g (Time 14.5 min): 0.98 % ID/g | Brain Mean % ID/g (Time 14.5 min): 1.78 % ID/g | Muscle Mean % ID/g (Time 14.5 min): 0.88 % ID/g | Bone Mean % ID/g (Time 15.5 min): 0.98 % ID/g | Brain Mean % ID/g (Time 15.5 min): 1.76 % ID/g | Muscle Mean % ID/g (Time 15.5 min): 0.89 % ID/g | Bone Mean % ID/g (Time 16.5 min): 0.83 % ID/g | Brain Mean % ID/g (Time 16.5 min): 1.72 % ID/g | Muscle Mean % ID/g (Time 16.5 min): 0.93 % ID/g | Bone Mean % ID/g (Time 17.5 min): 1.00 % ID/g | Brain Mean % ID/g (Time 17.5 min): 1.69 % ID/g | Muscle Mean % ID/g (Time 17.5 min): 0.91 % ID/g | Bone Mean % ID/g (Time 18.5 min): 0.97 % ID/g | Brain Mean % ID/g (Time 18.5 min): 1.65 % ID/g | Muscle Mean % ID/g (Time 18.5 min): 0.89 % ID/g | Bone Mean % ID/g (Time 19.5 min): 0.93 % ID/g | Brain Mean % ID/g (Time 19.5 min): 1.63 % ID/g | Muscle Mean % ID/g (Time 19.5 min): 0.90 % ID/g | Bone Mean % ID/g (Time 20.5 min): 1.01 % ID/g | Brain Mean % ID/g (Time 20.5 min): 1.61 % ID/g | Muscle Mean % ID/g (Time 20.5 min): 0.95 % ID/g | Bone Mean % ID/g (Time 21.5 min): 0.91 % ID/g | Brain Mean % ID/g (Time 21.5 min): 1.58 % ID/g | Muscle Mean % ID/g (Time 21.5 min): 0.98 % ID/g | Bone Mean % ID/g (Time 22.5 min): 1.02 % ID/g | Brain Mean % ID/g (Time 22.5 min): 1.56 % ID/g | Muscle Mean % ID/g (Time 22.5 min): 0.95 % ID/g | Bone Mean % ID/g (Time 23.5 min): 1.04 % ID/g | Brain Mean % ID/g (Time 23.5 min): 1.55 % ID/g | Muscle Mean % ID/g (Time 23.5 min): 1.00 % ID/g | Bone Mean % ID/g (Time 24.5 min): 1.11 % ID/g | Brain Mean % ID/g (Time 24.5 min): 1.51 % ID/g | Muscle Mean % ID/g (Time 24.5 min): 0.98 % ID/g | Bone Mean % ID/g (Time 25.5 min): 0.93 % ID/g | Brain Mean % ID/g (Time 25.5 min): 1.49 % ID/g | Muscle Mean % ID/g (Time 25.5 min): 0.99 % ID/g | Bone Mean % ID/g (Time 26.5 min): 0.86 % ID/g | Brain Mean % ID/g (Time 26.5 min): 1.46 % ID/g | Muscle Mean % ID/g (Time 26.5 min): 0.95 % ID/g | Bone Mean % ID/g (Time 27.5 min): 0.94 % ID/g | Brain Mean % ID/g (Time 27.5 min): 1.45 % ID/g | Muscle Mean % ID/g (Time 27.5 min): 0.94 % ID/g | Bone Mean % ID/g (Time 28.5 min): 1.00 % ID/g | Brain Mean % ID/g (Time 28.5 min): 1.42 % ID/g | Muscle Mean % ID/g (Time 28.5 min): 1.00 % ID/g | Bone Mean % ID/g (Time 29.5 min): 1.05 % ID/g | Brain Mean % ID/g (Time 29.5 min): 1.40 % ID/g | Muscle Mean % ID/g (Time 29.5 min): 0.97 % ID/g | Bone Mean % ID/g (Time 30.5 min): 0.95 % ID/g | Brain Mean % ID/g (Time 30.5 min): 1.38 % ID/g | Muscle Mean % ID/g (Time 30.5 min): 0.99 % ID/g | Bone Mean % ID/g (Time 31.5 min): 1.04 % ID/g | Brain Mean % ID/g (Time 31.5 min): 1.38 % ID/g | Muscle Mean % ID/g (Time 31.5 min): 0.95 % ID/g | Bone Mean % ID/g (Time 32.5 min): 1.04 % ID/g | Brain Mean % ID/g (Time 32.5 min): 1.36 % ID/g | Muscle Mean % ID/g (Time 32.5 min): 0.97 % ID/g
